# Patent US6579881B2 (Eisai Co., Ltd., priority 1997, dated 2003)
# Structures can show the parent of a compound that is named as a salt. Where two headings read alike, the source gives them in different places.
# Tests used:
# [1] = molecular target: T1, serotonin 1A receptor (Rattus norvegicus, UniProt P19327); experiment: Binding test on [3H] 8-hydroxy-dipropylaminotetralin (serotonin 1A receptor); settings: [3H] 8-OH-DPAT 0.5 nM, receptor fraction of rat hippocampus; read-out: 5HT1a
# T1 construct: To the receptor fraction of the hippocampus were added a test compound and 0.5 nM of [^3H]; 8-hydroxy-dipropylaminotetralin; from tissue; host or cells: SD rat hippocampus, membrane (receptor) fraction
# T1 sequence (P19327 1-422): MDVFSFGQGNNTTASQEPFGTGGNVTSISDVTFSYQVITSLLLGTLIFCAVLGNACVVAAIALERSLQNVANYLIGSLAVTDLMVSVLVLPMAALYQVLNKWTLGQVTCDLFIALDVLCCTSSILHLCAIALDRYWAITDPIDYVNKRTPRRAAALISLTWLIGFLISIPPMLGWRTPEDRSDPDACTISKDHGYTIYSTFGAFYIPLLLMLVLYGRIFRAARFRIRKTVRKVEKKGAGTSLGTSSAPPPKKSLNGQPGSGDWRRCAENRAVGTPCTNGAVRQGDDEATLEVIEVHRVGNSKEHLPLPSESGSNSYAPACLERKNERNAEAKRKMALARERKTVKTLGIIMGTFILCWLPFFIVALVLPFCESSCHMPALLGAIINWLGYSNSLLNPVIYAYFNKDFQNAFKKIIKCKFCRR
# [2] = molecular target: α1 adrenalin receptor; experiment: Binding test on [3H] prazosin (α1 adrenalin receptor); set-up: species or system rat; settings: [3H] prazosin about 0.2 nM, receptor fraction of rat cerebral cortex
# [3] = molecular target: serotonin 2 receptor (Rattus norvegicus, UniProt P14842); experiment: Binding test on [3H] ketanserin (serotonin 2 receptor)
# Sequence of serotonin 2 receptor (P14842 whole entry): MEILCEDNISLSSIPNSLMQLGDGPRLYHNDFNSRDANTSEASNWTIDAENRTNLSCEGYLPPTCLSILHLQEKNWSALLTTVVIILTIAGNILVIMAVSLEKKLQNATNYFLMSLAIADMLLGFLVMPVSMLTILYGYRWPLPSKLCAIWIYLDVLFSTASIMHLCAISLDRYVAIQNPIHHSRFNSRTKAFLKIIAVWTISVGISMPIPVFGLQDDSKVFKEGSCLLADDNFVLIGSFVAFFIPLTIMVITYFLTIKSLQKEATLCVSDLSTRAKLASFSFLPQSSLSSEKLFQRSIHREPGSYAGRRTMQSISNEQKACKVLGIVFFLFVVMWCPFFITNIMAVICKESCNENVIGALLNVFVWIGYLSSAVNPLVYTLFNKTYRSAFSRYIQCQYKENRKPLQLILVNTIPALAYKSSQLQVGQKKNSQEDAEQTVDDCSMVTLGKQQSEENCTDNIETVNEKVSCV
# [4] = [3H] ketanserin 0.3 nM, receptor fraction of rat cerebral cortex, read-out: 5HT2
Structure (SMILES),melting point,Ki [1],Ki [2],"Ki [3, 4]",Ki [3]
COc1ccc2c(c1)N(C1CCN(CCc3ccc(F)cc3)CC1)CCC2 (as salt: hydrochloride),258 °C (dec.),,,,
COc1ccc2c(c1OC)N(C1CCN(CCc3ccc(F)cc3)CC1)CCC2 (as salt: hydrochloride),213 to 215 °C,,,,
COc1ccc2c(c1)N(C1CCN(CC(=O)c3ccc(F)cc3)CC1)CCC2 (as salt: hydrochloride),153 to 155 °C (dec.),,,,
CCN1CCN([C@@H]2c3ccccc3CC2N(C)Cc2ccc(F)cc2)CC1 (some centres unmarked) (as salt: hydrochloride) [Example 254],196 to 198 °C,,,,
"COc1ccc2c(c1)N(C1CCN(CCCC#N)CC1)CCC2 (as salt: hydrochloride) [Example 269, 1-[1-(4-Cyanopropyl)piperidin-4-yl]-7-methoxy-1,2,3,4-tetrahydroquinoline Hydrochloride]",180 to 183 °C (dec.),,,,
"COc1ccc2c(c1)N(C1CCN(CCc3cccs3)CC1)CCC2 (as salt: hydrochloride) [Example 270, 1-{1-[2-(2-Thienyl)ethyl]piperidin-4-yl}-7-methoxy-1,2,3,4-tetrahydroquinoline Hydrochloride]",232 to 235 °C,,,,
"OCCOc1ccc2c(c1)CCCC2C1CCN(CCc2ccc(F)cc2)CC1 (centres unmarked) (as salt: hydrochloride) [Example 278, 1-[2-(4-fluorophenyl)ethyl]-4-[6-(2-hydroxy)ethoxy-1,2,3,4-tetrahydronaphthalen-1-yl]piperidine]",213 to 215 °C (dec.),,,,
COc1ccc2c(c1C)N(C1CCN(CCc3ccc(F)cc3)CC1)CCC2 (as salt: oxalate),176 to 178 °C,,,,
"O=C(CCl)NCc1ccc(CCN2CCC(N3CCc4ccccc43)CC2)cc1 (as salt: oxalate) [Example 37, 1-[1-(4-chloroacetamidomethylphenethyl)piperidin-4-yl]indoline]",138 °C,,,,
"CS(=O)(=O)NCc1ccc(CCN2CCC(N3CCc4ccccc43)CC2)cc1 (as salt: oxalate) [Example 38, 1-[1-(4-methanesulfonylaminomethylphenethyl)piperidin-4-yl]indoline]",199 °C,,,,
"O=C(Cc1ccc2ccn(C3CCN(CCc4ccc(F)cc4)CC3)c2c1)N1CCCC1 (as salt: oxalate) [Example 298, 1-[1-(4-fluorophenethyl)piperidin-4-yl]-6-(tetramethylenecarbamoylmethyl)indole Oxalate]",171.5 to 172.1 °C,,,,
"CC(=O)NCc1ccc2ccn(C3CCN(CCc4ccc(F)cc4F)CC3)c2c1 (as salt: oxalate) [Example 357, 1-[1-(2,4-difluorophenethyl)piperidin-4-yl]-6-acetamidomethylindole]",103 to 106 °C,,,,
"CC(=O)N1CCC(CNC(=O)Cc2ccc3ccn(C4CCN(CCc5ccc(F)cc5)CC4)c3c2)CC1 [Example 343, Oxalate]",,1.54 nM,38.1 nM,,1.64 nM
"O=C1NCCN1Cc1ccc2ccn(C3CCN(CCc4ccc(F)cc4)CC3)c2c1 [Example 355, 1-[1-(4-fluorophenethyl)piperidin-4-yl]-6-(2-imidazolidonyl)methylindole]",,0.35 nM,39.5 nM,6.87 nM,
"CC(=O)NCc1ccc2c(C=O)cn(C3CCN(CCc4ccc(F)cc4)CC3)c2c1 [Example 370, 1-[1-(4-fluorophenethyl)piperidin-4-yl]-3-formyl-6-acetamidomethylindole]",,> 20 nM,256 nM,> 20 nM,
"O=C(CF)NCc1ccc2ccn(C3CCN(CCc4ccccc4F)CC3)c2c1 [Example 381, 1-[1-(2-fluorophenethyl)piperidin-4-yl]-6-fluoroacetamidomethylindole]",,1.37 nM,101 nM,2.02 nM,
"CC(=O)NCc1ccc2ccn(C3CCN(CCc4ccc(C(C)O)cc4)CC3)c2c1 (centres unmarked) [Example 388, 1-{4-[(1-hydroxyethyl)phenethyl]piperidin-4-yl}-6-acetamidomethylindole]",,2.26 nM,366 nM,> 20 nM,

# More lines, main results first:
melting point,Ki [1],Ki [2],"Ki [3, 4]",Structure (SMILES),Ki [3]
179 to 180 °C,,,,"O=C1CCCN1Cc1ccc2ccn(C3CCN(CCc4ccc(F)cc4)CC3)c2c1 (as salt: oxalate) [Example 358, 1-[1-(4-fluorophenethyl)piperidin-4-yl]-6-(2-pyrrolidon-1-yl)methylindole]",
148 to 149 °C,,,,"CC(=O)N(C)Cc1ccc2ccn(C3CCN(CCc4ccc(F)cc4)CC3)c2c1 (as salt: oxalate) [Example 359, 1-[1-(4-fluorophenethyl)piperidin-4-yl]-6-N-methylacetamidomethylindole]",
,0.73 nM,41.8 nM,14 nM,"O=C1CCCN1Cc1ccc2ccn(C3CCN(CCc4ccc(F)cc4)CC3)c2c1 [Example 358, 1-[1-(4-fluorophenethyl)piperidin-4-yl]-6-(2-pyrrolidon-1-yl)methylindole]",
,0.71 nM,75.9 nM,7.39 nM,"CC(=O)N(C)Cc1ccc2ccn(C3CCN(CCc4ccc(F)cc4)CC3)c2c1 [Example 359, 1-[1-(4-fluorophenethyl)piperidin-4-yl]-6-N-methylacetamidomethylindole]",
,26.6 nM,690 nM,> 20 nM,"CC(=O)NCc1ccc2ccn(C3CCN(CCCc4ccc(F)cc4)CC3)c2c1 [Example 360, 1-{1-[3-(4-fluorophenyl)propyl]-piperidin-4-yl}-6-acetamidomethylindole]",
,0.27 nM,77.4 nM,> 20 nM,"CNCc1ccc2ccn(C3CCN(CCc4ccc(F)cc4)CC3)c2c1 [Example 361, 1-[1-(4-fluorophenethyl)piperidin-4-yl]-6-N-methylaminomethylindole]",
,0.46 nM,144 nM,3.54 nM,"CCCC(=O)NCc1ccc2ccn(C3CCN(CCc4ccc(F)cc4)CC3)c2c1 [Example 362, 1-[1-(4-fluorophenethyl)piperidin-4-yl]-6-(n-butyryl)aminomethylindole]",
,1.63 nM,37.6 nM,0.56 nM,"O=C(NCc1ccc2ccn(C3CCN(CCc4ccc(F)cc4)CC3)c2c1)n1ccnc1 [Example 368, 1-[1-(4-fluorophenethyl)piperidin-4-yl]-6-imidazocarbonylaminomethylindole]",
,2.02 nM,121 nM,2.88 nM,"O=C(CCO)NCc1ccc2ccn(C3CCN(CCc4ccc(F)cc4)CC3)c2c1 [Example 369, 1-[1-(4-fluorophenethyl)piperidin-4-yl]-6-(3-hydroxypropionylamino)methylindole]",
,> 20 nM,206 nM,> 20 nM,"CC(=O)NCc1ccc2c(CO)cn(C3CCN(CCc4ccc(F)cc4)CC3)c2c1 [Example 372, 1-[1-(4-fluorophenethyl)piperidin-4-yl]-3-hydroxymethyl-6-acetamidomethylindole]",
,1.56 nM,61.4 nM,3.37 nM,"CN(C)CC(=O)NCc1ccc2ccn(C3CCN(CCc4ccc(F)cc4)CC3)c2c1 [Example 375, 1-[1-(4-fluorophenethyl)piperidin-4-yl]-6-(N,N-dimethylaminoacetamido)methylindole]",
,0.91 nM,46.7 nM,2.1 nM,"O=C(CN1CCCCC1)NCc1ccc2ccn(C3CCN(CCc4ccc(F)cc4)CC3)c2c1 [Example 376, 1-[1-(4-fluorophenethyl)piperidin-4-yl]-6-[(piperidin-1-yl)acetamido]methylindole]",
,14.2 nM,43.7 nM,1.54 nM,"CN(C)CCC(=O)NCc1ccc2ccn(C3CCN(CCc4ccc(F)cc4)CC3)c2c1 [Example 378, 1-[1-(4-fluorophenethyl)piperidin-4-yl]-6-(3-N,N-dimethylaminopropionyl)aminomethylindole]",
,9.65 nM,30.3 nM,1.25 nM,"O=C(CCN1CCCCC1)NCc1ccc2ccn(C3CCN(CCc4ccc(F)cc4)CC3)c2c1 [Example 379, 1-[1-(4-fluorophenethyl)piperidin-4-yl]-6-[3-(piperidin-1-yl)propionylamino]methylindole]",
,5.38 nM,26.2 nM,> 20 nM,"CC(=O)NCc1ccc2ccn(C3CCN(CCc4cccnc4)CC3)c2c1 [Example 386, 1-{1-[2-(3-Pyridyl)ethyl]piperidin-4-yl}-6-acetamidomethylindole]",
,63.5 nM,26.2 nM,> 20 nM,"CC(=O)NCc1ccc2c(C#N)cn(C3CCN(CCc4ccc(F)cc4)CC3)c2c1 [Example 387, 3-cyano-1-[1-(4-fluorophenethyl)piperidin-4-yl]-6-acetamidomethylindole]",
,0.99 nM,34.3 nM,11.6 nM,"O=Cc1ccc2ccn(C3CCN(CCc4ccccc4F)CC3)c2c1 [Example 390, 1-[1-(2-fluorophenethyl)piperidin-4-yl]-6-formylindole]",
,0.65 nM,25 nM,38.1 nM,"CC(O)c1ccc2ccn(C3CCN(CCc4ccc(F)cc4)CC3)c2c1 (centres unmarked) [Example 392, 1-[1-(4-fluorophenethyl)piperidin-4-yl]-6-(1-hydroxyethyl)indole Oxalate]",
